Columns and labels:
Test in all cases: relative viability (nuclei count vs DMSO), 5 days (fraction); higher = more cells survive
[1] = compound: C1=CC2=C(C=C(C(=C2N=C1)O)N=NC3=CC4=C(C=C3)C=C(C=C4)S(=O)(=O)O)S(=O)(=O)O + CC(=O)Nc1cccc(-n2c(=O)n(C3CC3)c(=O)c3c(Nc4ccc(I)cc4F)n(C)c(=O)c(C)c32)c1 [Trametinib] (partner 0.02 µM)
Procedure, shortened: (§1)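 Values are medians from duplicate plates. Each reflects relative viability, defined as the nuclei count of treated wells over that of vehicle wells. Lung cancer cell lines in 1536-well plates were pin-tool dosed one day after seeding with one drug alone or with a fixed anchor-drug dose plus five library-drug doses (not always all listed) in √10 steps, then fixed, stained and imaged at 4× after 5 days.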

[2] = compound: C1=CC2=C(C=C(C(=C2N=C1)O)N=NC3=CC4=C(C=C3)C=C(C=C4)S(=O)(=O)O)S(=O)(=O)O + CC(C)C[C@H](NC(=O)[C@H](Cc1ccccc1)NC(=O)c1cnccn1)B(O)O [Bortezomib] (partner 0.002 µM)
Procedure, shortened: as §1

AT-7519 + Navitoclax = compound: O=C(NC1CCNCC1)c1n[nH]cc1NC(=O)c1c(Cl)cccc1Cl [AT-7519] + CC1(C)CCC(c2ccc(Cl)cc2)=C(CN2CCN(c3ccc(C(=O)NS(=O)(=O)c4ccc(N[C@H](CCN5CCOCC5)CSc5ccccc5)c(S(=O)(=O)C(F)(F)F)c4)cc3)CC2)C1 [Navitoclax] (partner 0.5 µM)
Procedure, shortened: as §1

AT-7519 + Tozasertib = compound: O=C(NC1CCNCC1)c1n[nH]cc1NC(=O)c1c(Cl)cccc1Cl [AT-7519] + Cc1cc(Nc2cc(N3CCN(C)CC3)nc(Sc3ccc(NC(=O)C4CC4)cc3)n2)n[nH]1 [Tozasertib] (partner 0.1 µM)
Procedure, shortened: as §1

For UMC-11, the relative viability ([1]; first compound 0.08 µM) was 0.74, the relative viability ([1]; first compound 0.253 µM) was 0.777 and the relative viability ([1]; first compound 0.8 µM) was 0.658. For the same cell line, the relative viability ([1]; first compound 2.53 µM) was 0.728, the relative viability ([1]; first compound 8 µM) was 0.766 and the relative viability ([2]; first compound 0.08 µM) was 0.84. The relative viability ([2]; first compound 0.253 µM) was 0.783, the relative viability ([2]; first compound 0.8 µM) was 0.708 and the relative viability ([2]; first compound 2.53 µM) was 0.633. It also gave a relative viability ([2]; first compound 8 µM) of 0.606, a relative viability (AT-7519 + Navitoclax; first compound 0.01 µM) of 0.291 and a relative viability (AT-7519 + Navitoclax; first compound 0.03162 µM) of 0.306. For the same cell line, the relative viability (AT-7519 + Navitoclax; first compound 0.3162 µM) was 0.222, the relative viability (AT-7519 + Navitoclax; first compound 1 µM) was 0.134 and the relative viability (AT-7519 + Tozasertib; first compound 0.01 µM) was 0.223. The relative viability (AT-7519 + Tozasertib; first compound 0.03162 µM) was 0.211, the relative viability (AT-7519 + Tozasertib; first compound 0.3162 µM) was 0.278 and the relative viability (AT-7519 + Tozasertib; first compound 1 µM) was 0.219.

From the supplement of paper PMC10307832
